Ten compounds from ChEMBL document CHEMBL5042539, “Structure-Guided Discovery of the Novel Covalent Allosteric Site and Covalent Inhibitors of Fructose-1,6-Bisphosphate Aldolase to Overcome the Azole Resistance of Candidiasis” (J Med Chem, 2022) can be followed below.

Data set [1] has as its system Candida albicans. The data set can be described thus: Antifungal activity against Candida albicans SC5314 incubated for 48 hrs by CLSI based broth microdilution method. The class given is functional.
Data set [2] in a line: Inhibition of wild type Candida albicans Fructose-1,6-Bisphosphate Aldolase transfected in Escherichia coli BL21 (DE3) incubated for 3 mins in presence of NADH by spectrophotometric analysis.
Data set [3] concerns Candida albicans. Nature of the data set: Inhibition of wild type Candida albicans Fructose-1,6-Bisphosphate Aldolase transfected in Escherichia coli BL21 (DE3) at 100 uM incubated for 3 mins in presence of NADH by spectrophotometric analysis relative to control.
Data set [4] has as its system Candida albicans. Nature of the data set: Antifungal activity against fluconazole resistant Candida albicans 103 incubated for 48 hrs by CLSI based broth microdilution method. It is filed as functional. A general note: Broth dilution looks for growth in wells or tubes with falling amounts of substance.
The subject of data set [5] is Candida albicans. The data set can be described thus: Antifungal activity against fluconazole resistant Candida albicans 904 incubated for 48 hrs by CLSI based broth microdilution method. The class given is functional.
Data set [6] has as its system Candida albicans. Nature of the data set: Antifungal activity against fluconazole resistant Candida albicans 7781 incubated for 48 hrs by CLSI based broth microdilution method. The class given is functional.
A short description of data set [7]: Toxicity in po dosed rat assessed as lethal dose. The class given is organism-based. The conditions noted are these: in vivo.
Data set [8] in a line: Inhibition of Candida albicans Fructose-1,6-Bisphosphate Aldolase C292S mutant transfected in Escherichia coli BL21 (DE3) incubated for 3 mins in presence of NADH by spectrophotometric analysis.
The test system of data set [9] is Candida albicans. Nature of the data set: Selectivity ratio of IC50 for inhibition of Candida albicans Fructose-1,6-Bisphosphate Aldolase C292S mutant to IC50 for inhibition of wild type Candida albicans Fructose-1,6-Bisphosphate Aldolase.
Data set [10] is described as follows: Inhibition of Candida albicans Fructose-1,6-Bisphosphate Aldolase C111S mutant transfected in Escherichia coli BL21 (DE3) incubated for 3 mins in presence of NADH by spectrophotometric analysis.
Data set [11] in a line: Cytotoxicity against human HaCaT cells. The class given is toxicity, cell-based.
Data set [12] in a line: Inhibition of Candida albicans Fructose-1,6-Bisphosphate Aldolase C157S mutant transfected in Escherichia coli BL21 (DE3) incubated for 3 mins in presence of NADH by spectrophotometric analysis.
For data set [13], the system named is Candida albicans. The data set can be described thus: Binding affinity to Candida albicans Fructose-1,6-Bisphosphate Aldolase assessed as Kinact incubated for 12 to 40 mins by NADH-linked enzymatic assay. The conditions noted are these: time 12-40 min.
Data set [14] concerns Candida albicans. Nature of the data set: Binding affinity to Candida albicans Fructose-1,6-Bisphosphate Aldolase assessed as ratio of kinact/Ki incubated for 12 to 40 mins by NADH-linked enzymatic assay. The conditions noted are these: time 12-40 min.
Data set [15] can be described thus: Binding affinity to Candida albicans Fructose-1,6-Bisphosphate Aldolase assessed as inhibition constant incubated for 12 to 40 mins by NADH-linked enzymatic assay.
Data set [16] deals with Candida albicans. The data set can be described thus: Inhibition of Candida albicans Fructose-1,6-Bisphosphate Aldolase C292S mutant transfected in Escherichia coli BL21 (DE3) assessed as Kcat by kinetic based analysis.
The test system of data set [17] is Candida albicans. Nature of the data set: Inhibition of Candida albicans Fructose-1,6-Bisphosphate Aldolase C157S mutant transfected in Escherichia coli BL21 (DE3) assessed as Km by kinetic based analysis.
Data set [18] has as its system Candida albicans. Nature of the data set: Inhibition of Candida albicans Fructose-1,6-Bisphosphate Aldolase C292S mutant transfected in Escherichia coli BL21 (DE3) assessed as Km by kinetic based analysis.
For data set [19], the system named is Candida albicans. Nature of the data set: Inhibition of wild type Candida albicans Fructose-1,6-Bisphosphate Aldolase transfected in Escherichia coli BL21 (DE3) assessed as Kcat/Km by kinetic based analysis.
The subject of data set [20] is Candida albicans. Nature of the data set: Inhibition of Candida albicans Fructose-1,6-Bisphosphate Aldolase C111S mutant transfected in Escherichia coli BL21 (DE3) assessed as Km by kinetic based analysis.
Data set [21] relates to Candida albicans. The data set can be described thus: Inhibition of Candida albicans Fructose-1,6-Bisphosphate Aldolase C292S mutant transfected in Escherichia coli BL21 (DE3) at 500 uM incubated for 3 mins in presence of NADH by spectrophotometric analysis relative to control.
The subject of data set [22] is Candida albicans. Nature of the data set: Inhibition of Candida albicans Fructose-1,6-Bisphosphate Aldolase C111S mutant transfected in Escherichia coli BL21 (DE3) assessed as Kcat by kinetic based analysis.
Data set [23] concerns Candida albicans. Nature of the data set: Inhibition of Candida albicans Fructose-1,6-Bisphosphate Aldolase C157S mutant transfected in Escherichia coli BL21 (DE3) assessed as Kcat/Km by kinetic based analysis.
Data set [24] concerns Candida albicans. The data set can be described thus: Inhibition of Candida albicans Fructose-1,6-Bisphosphate Aldolase C157S mutant transfected in Escherichia coli BL21 (DE3) assessed as Kcat by kinetic based analysis.
The test system of data set [25] is Candida albicans. Nature of the data set: Inhibition of wild type Candida albicans Fructose-1,6-Bisphosphate Aldolase transfected in Escherichia coli BL21 (DE3) assessed as Kcat by kinetic based analysis.
Data set [26] concerns Candida albicans. The data set can be described thus: Inhibition of Candida albicans Fructose-1,6-Bisphosphate Aldolase C292S mutant transfected in Escherichia coli BL21 (DE3) assessed as Kcat/Km by kinetic based analysis.
The subject of data set [27] is Candida albicans. Nature of the data set: Inhibition of Candida albicans Fructose-1,6-Bisphosphate Aldolase C111S mutant transfected in Escherichia coli BL21 (DE3) assessed as Kcat/Km by kinetic based analysis.
Data set [28] has as its system Candida albicans. The data set can be described thus: Inhibition of wild type Candida albicans Fructose-1,6-Bisphosphate Aldolase transfected in Escherichia coli BL21 (DE3) assessed as Km by kinetic based analysis.
Data set [29] has as its system Candida albicans. The data set can be described thus: Antibiofilm activity against azole resistant Candida albicans 0304103 assessed as inhibition of biofilm formation by XTT assay. It is filed as functional, organism-based. The conditions noted are these: dose 0-64 µg/ml.
Data set [30] concerns Candida albicans. The data set can be described thus: Antifungal activity against azole-resistant Candida albicans 030410 assessed as inhibition of fungal filamentation by measuring reduction in yeast-hypha transition at 32 ug/ml by microscopic analysis. The class given is functional, organism-based. The following applies: dose 32.0 µg/ml.

≈ marks a conversion by molar mass, not a printed value. Calls of active or inactive are those of the source. The calls are words filed in the database; no cut-off is given here. Where only a bound is given, the exact number is not on record here.

The MIC80 is an inhibitory concentration at the 80% level, which refers to growth in some studies and to a panel of isolates in others. Read a low MIC80 as greater potency. A word on the IC50: it is the concentration at which inhibition is half-maximal. In general, inhibition refers to the percentage by which the read-out fell short of the control. As to `O=C1c2ccccc2CN1Cc1ccccc1`, the MIC80 in the data set with Candida albicans [1], against Candida albicans [4], with Candida albicans [5] and in the data set with Candida albicans [6] was more than 64 µg/mL each time. Also, in [2], the IC50 is more than 100000 nM. The inhibition in the data set on Candida albicans [3] is less than 50%.

As for `O=c1c2ccccc2[se]n1-c1ccccc1` [EBSELEN], the LD in [7] was more than 4600 mg/kg. The IC50 was 1150 nM in [8]; 14.3 nM in data set [2]; 72.6 nM in [10]; more than 32 µM in data set [11]; 31 nM in data set [12]. The MIC80 with Candida albicans [1], against Candida albicans [4], against Candida albicans [5] and against Candida albicans [6] was 2 µg/mL (≈ 7.29 µM) each time. The Ratio IC50 in the data set with Candida albicans [9] turned out to be 80.4.

In the case of `O=C1c2ccccc2CN1c1ccccc1`, the MIC80 against Candida albicans [1], in the data set with Candida albicans [4], in the data set on Candida albicans [5] and in the data set with Candida albicans [6] was more than 64 µg/mL each time. The IC50 in data set [2] is more than 100000 nM. Also, the inhibition in the data set on Candida albicans [3] is less than 50%.

As a reminder, the Ki is a dissociation constant, usually derived from enzyme kinetics or from competition with a known ligand. For `O=c1c2ccccc2[se]n1-c1ccc(C(F)(F)F)cc1`, the MIC80 against Candida albicans [1] is 4 µg/mL (≈ 11.7 µM); in the data set with Candida albicans [4], 4 µg/mL (≈ 11.7 µM); against Candida albicans [5], 8 µg/mL (≈ 23.4 µM); against Candida albicans [6], 4 µg/mL (≈ 11.7 µM). Besides, in the data set with Candida albicans [13], the Kinact amounted to 0.00092 s⁻¹. Besides, the Ratio in the data set with Candida albicans [14] was 15.9 M⁻¹ s⁻¹. The Ki in [15] was 58 nM. For the same compound, the IC50 in [2] was 13 nM; in [11] it was more than 32 µM.

In the case of `O=C(NCc1ccccc1)N1Cc2ccccc2C1=O`, the MIC80 with Candida albicans [1], against Candida albicans [4], against Candida albicans [5] and against Candida albicans [6] was more than 64 µg/mL each time. In data set [2], the IC50 was more than 100000 nM. Further, the inhibition in the data set with Candida albicans [3] is less than 50%.

As for `O=c1c2ccccc2[se]n1-c1nncs1`, the IC50 was determined as 1750 nM in data set [8], 155 nM in data set [2], 303 nM in [10] and 227 nM in data set [12]. The Ratio IC50 in the data set with Candida albicans [9] turned out to be 11.3.

For `Nc1ccc(-n2[se]c3ccccc3c2=O)cc1`, the MIC80 in the data set on Candida albicans [1], in the data set on Candida albicans [4], with Candida albicans [5] and in the data set with Candida albicans [6] was 8 µg/mL (≈ 27.7 µM) in each case. The Kinact in the data set with Candida albicans [13] came to 0.00199 s⁻¹. The Ratio with Candida albicans [14] was 3560 M⁻¹ s⁻¹. In addition, in data set [15], the Ki was determined as 559 nM. The IC50 was 82.3 nM in data set [2] and more than 32 µM in data set [11].

Turning to `O=c1c2ccccc2[se]n1-c1ccc(-n2cncn2)cc1`, the MIC80 with Candida albicans [1] worked out at 8 µg/mL (≈ 23.4 µM); in the data set on Candida albicans [4], 8 µg/mL (≈ 23.4 µM); in the data set with Candida albicans [5], 4 µg/mL (≈ 11.7 µM); against Candida albicans [6] it was 8 µg/mL (≈ 23.4 µM). The Kinact in the data set on Candida albicans [13] came to 0.00506 s⁻¹. Moreover, in the data set on Candida albicans [14], the Ratio was 10.4 M⁻¹ s⁻¹. In addition, the Ki in [15] is 486 nM. The values for the IC50 in data set [2] and in data set [11] were 38 nM and more than 32 µM, respectively.

By kcat is commonly meant the number of substrate molecules converted per active site and unit of time at saturation. By Km is commonly meant the concentration of substrate that gives half-maximal velocity. A word on the kcat/Km: it is the second-order rate constant that governs catalysis at low substrate concentration. For `CCCCn1sc2ccccc2c1=O`, the IC50 in data set [8] was more than 500000 nM; in data set [2] it was 17700 nM; in data set [10], 9900 nM; in data set [12], 12500 nM. In addition, the Kinact with Candida albicans [13] is 0.00178 s⁻¹. Further, the kcat with Candida albicans [16] was determined as 24.8 s⁻¹; in the data set with Candida albicans [22], 36.1 s⁻¹; in the data set on Candida albicans [24] it was 34.7 s⁻¹; in the data set on Candida albicans [25], 38.6 s⁻¹. In addition, the Km in the data set on Candida albicans [17] stood at 17.8 µM; with Candida albicans [18], 45.7 µM; in the data set with Candida albicans [20] it was 25.1 µM; in the data set on Candida albicans [28] it was 21.9 µM. The Ratio with Candida albicans [14] was determined as 300 M⁻¹ s⁻¹. The Ki in [15] was determined as 5960 nM. Moreover, the specificity constant (kcat/Km) in the data set on Candida albicans [19] is 1.8 µM⁻¹ s⁻¹; in the data set on Candida albicans [23] it was 2 µM⁻¹ s⁻¹; with Candida albicans [26], 0.5 µM⁻¹ s⁻¹; in the data set on Candida albicans [27] it was 1.4 µM⁻¹ s⁻¹. Besides, in the data set with Candida albicans [21], the inhibition was less than 50%. The Ratio IC50 in the data set on Candida albicans [9] is more than 28.3.

Turning to `CCc1ccc(-n2[se]c3ccccc3c2=O)cc1`, in the data set on Candida albicans [29], the Activity entry was “Dose-Dependent Effect”. Besides, the MIC80 against Candida albicans [1] came out at 4 µg/mL (≈ 13.2 µM); with Candida albicans [4] it was 1 µg/mL (≈ 3.31 µM); against Candida albicans [5], 4 µg/mL (≈ 13.2 µM); in the data set with Candida albicans [6], 2 µg/mL (≈ 6.62 µM). Moreover, the IC50 was 92 nM in [2] and more than 32 µM in data set [11]. Also, the outcome with Candida albicans [30] was Active.
